Assay results from ChEMBL document CHEMBL4507279, “Data for DCP probe BI-9627” (2021).

Experiments:
[1] = test system: Tyrosine-protein kinase ABL1 (Homo sapiens), P00519 [T315I]; conditions: Compound concentration 1000.0 nM
[2] = target: RAC-alpha serine/threonine-protein kinase (Homo sapiens) (UniProt P31749); conditions: Compound concentration 1000.0 nM
[3] = target: Aurora kinase A (Homo sapiens) (UniProt O14965); conditions: Compound concentration 1000.0 nM
[4] = target: Serine/threonine-protein kinase BRSK2 (Homo sapiens) (UniProt Q8IWQ3); conditions: Compound concentration 1000.0 nM
[5] = target: Calcium/calmodulin-dependent protein kinase type II subunit beta (Homo sapiens) (UniProt Q13554); conditions: Compound concentration 1000.0 nM
[6] = target: Calcium/calmodulin-dependent protein kinase type IV (Homo sapiens) (UniProt Q16566); conditions: Compound concentration 1000.0 nM
[7] = target: Cyclin-dependent kinase 8 (Homo sapiens) (UniProt P49336); conditions: Compound concentration 1000.0 nM
[8] = target: Serine/threonine-protein kinase Chk1 (Homo sapiens) (UniProt O14757); conditions: Compound concentration 1000.0 nM
Sequence of Serine/threonine-protein kinase Chk1 (Homo sapiens) (O14757 whole entry): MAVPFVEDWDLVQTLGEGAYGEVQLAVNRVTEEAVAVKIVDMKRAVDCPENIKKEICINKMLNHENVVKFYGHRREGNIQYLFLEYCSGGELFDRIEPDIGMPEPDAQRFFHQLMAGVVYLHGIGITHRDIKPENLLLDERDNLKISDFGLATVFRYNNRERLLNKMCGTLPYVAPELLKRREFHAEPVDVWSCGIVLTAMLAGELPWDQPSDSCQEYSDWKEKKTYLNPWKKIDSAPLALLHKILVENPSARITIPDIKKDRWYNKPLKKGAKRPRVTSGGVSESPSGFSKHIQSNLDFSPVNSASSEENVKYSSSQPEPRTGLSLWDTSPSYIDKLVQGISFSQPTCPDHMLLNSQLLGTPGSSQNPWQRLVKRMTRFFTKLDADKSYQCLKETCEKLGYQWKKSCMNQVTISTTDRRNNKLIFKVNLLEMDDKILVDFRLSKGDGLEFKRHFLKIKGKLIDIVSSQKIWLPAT

[9] = test system: Epidermal growth factor receptor (Homo sapiens), P00533 [UNDEFINED MUTATION]; conditions: Compound concentration 1000.0 nM
[10] = target: Mitogen-activated protein kinase 15 (Homo sapiens) (UniProt Q8TD08); conditions: Compound concentration 1000.0 nM
[11] = target: Tyrosine-protein kinase Fer (Homo sapiens) (UniProt P16591); conditions: Compound concentration 1000.0 nM
[12] = target: Tyrosine-protein kinase Fgr (Homo sapiens) (UniProt P09769); conditions: Compound concentration 1000.0 nM
Sequence of Tyrosine-protein kinase Fgr (Homo sapiens) (P09769 2-529 limits assumed): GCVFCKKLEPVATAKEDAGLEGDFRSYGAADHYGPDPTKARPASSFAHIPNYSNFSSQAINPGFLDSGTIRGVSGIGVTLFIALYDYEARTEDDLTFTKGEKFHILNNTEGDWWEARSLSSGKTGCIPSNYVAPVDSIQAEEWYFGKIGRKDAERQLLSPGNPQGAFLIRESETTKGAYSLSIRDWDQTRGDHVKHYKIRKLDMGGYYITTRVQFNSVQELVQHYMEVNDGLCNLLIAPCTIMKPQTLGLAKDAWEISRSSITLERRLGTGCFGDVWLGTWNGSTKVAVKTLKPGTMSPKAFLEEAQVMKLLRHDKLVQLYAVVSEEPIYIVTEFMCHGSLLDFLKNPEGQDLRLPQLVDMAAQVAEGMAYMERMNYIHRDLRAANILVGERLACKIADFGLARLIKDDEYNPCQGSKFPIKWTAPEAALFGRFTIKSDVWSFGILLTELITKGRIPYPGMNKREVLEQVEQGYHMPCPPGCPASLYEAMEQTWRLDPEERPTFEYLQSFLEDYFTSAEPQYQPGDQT

[13] = target: Homeodomain-interacting protein kinase 4 (Homo sapiens) (UniProt Q8NE63); conditions: Compound concentration 1000.0 nM
[14] = target: Insulin-like growth factor 1 receptor (Homo sapiens) (UniProt P08069); conditions: Compound concentration 1000.0 nM
Sequence of Insulin-like growth factor 1 receptor (Homo sapiens) (P08069 31-736 limits assumed): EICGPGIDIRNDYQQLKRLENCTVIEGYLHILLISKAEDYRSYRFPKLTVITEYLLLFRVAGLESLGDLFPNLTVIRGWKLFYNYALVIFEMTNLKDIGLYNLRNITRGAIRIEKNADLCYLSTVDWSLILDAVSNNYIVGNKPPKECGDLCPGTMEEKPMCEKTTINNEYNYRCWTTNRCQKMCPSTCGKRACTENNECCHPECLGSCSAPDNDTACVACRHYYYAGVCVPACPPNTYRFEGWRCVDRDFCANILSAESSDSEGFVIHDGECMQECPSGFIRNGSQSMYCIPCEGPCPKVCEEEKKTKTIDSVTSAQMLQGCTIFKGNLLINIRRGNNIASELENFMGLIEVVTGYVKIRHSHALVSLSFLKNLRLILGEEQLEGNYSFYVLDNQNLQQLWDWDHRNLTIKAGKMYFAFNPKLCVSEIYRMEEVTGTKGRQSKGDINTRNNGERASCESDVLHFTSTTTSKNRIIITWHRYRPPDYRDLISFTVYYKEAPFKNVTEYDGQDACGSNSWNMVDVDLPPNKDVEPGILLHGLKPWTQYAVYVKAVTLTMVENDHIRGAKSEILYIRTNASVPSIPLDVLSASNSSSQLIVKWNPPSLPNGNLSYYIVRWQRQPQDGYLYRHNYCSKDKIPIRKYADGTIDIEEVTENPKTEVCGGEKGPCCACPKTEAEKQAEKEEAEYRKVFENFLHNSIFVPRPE
Sequence of Insulin-like growth factor 1 receptor (Homo sapiens) (P08069 741-1367 limits assumed): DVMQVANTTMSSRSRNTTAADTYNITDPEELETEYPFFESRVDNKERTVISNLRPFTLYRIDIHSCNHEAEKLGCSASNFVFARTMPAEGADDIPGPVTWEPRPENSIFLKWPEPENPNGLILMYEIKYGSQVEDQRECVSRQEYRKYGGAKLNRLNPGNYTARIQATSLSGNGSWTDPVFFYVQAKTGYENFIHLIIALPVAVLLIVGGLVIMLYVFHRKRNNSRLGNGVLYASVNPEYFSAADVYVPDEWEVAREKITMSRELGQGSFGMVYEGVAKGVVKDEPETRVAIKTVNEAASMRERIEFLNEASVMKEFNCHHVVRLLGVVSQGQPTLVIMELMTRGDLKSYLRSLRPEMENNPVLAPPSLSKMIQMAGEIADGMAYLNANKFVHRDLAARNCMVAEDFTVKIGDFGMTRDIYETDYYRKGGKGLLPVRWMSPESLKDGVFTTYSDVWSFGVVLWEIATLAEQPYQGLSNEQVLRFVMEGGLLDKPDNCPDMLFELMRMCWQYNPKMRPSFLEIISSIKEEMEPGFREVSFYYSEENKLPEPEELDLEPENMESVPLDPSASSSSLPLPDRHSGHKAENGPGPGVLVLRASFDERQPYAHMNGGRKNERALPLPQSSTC

[15] = target: Interleukin-1 receptor-associated kinase 1 (Homo sapiens) (UniProt P51617); conditions: Compound concentration 1000.0 nM
[16] = target: Interleukin-1 receptor-associated kinase 3 (Homo sapiens) (UniProt Q9Y616); conditions: Compound concentration 1000.0 nM
[17] = target: Serine/threonine-protein kinase LATS2 (Homo sapiens) (UniProt Q9NRM7); conditions: Compound concentration 1000.0 nM
Sequence of Serine/threonine-protein kinase LATS2 (Homo sapiens) (Q9NRM7 whole entry): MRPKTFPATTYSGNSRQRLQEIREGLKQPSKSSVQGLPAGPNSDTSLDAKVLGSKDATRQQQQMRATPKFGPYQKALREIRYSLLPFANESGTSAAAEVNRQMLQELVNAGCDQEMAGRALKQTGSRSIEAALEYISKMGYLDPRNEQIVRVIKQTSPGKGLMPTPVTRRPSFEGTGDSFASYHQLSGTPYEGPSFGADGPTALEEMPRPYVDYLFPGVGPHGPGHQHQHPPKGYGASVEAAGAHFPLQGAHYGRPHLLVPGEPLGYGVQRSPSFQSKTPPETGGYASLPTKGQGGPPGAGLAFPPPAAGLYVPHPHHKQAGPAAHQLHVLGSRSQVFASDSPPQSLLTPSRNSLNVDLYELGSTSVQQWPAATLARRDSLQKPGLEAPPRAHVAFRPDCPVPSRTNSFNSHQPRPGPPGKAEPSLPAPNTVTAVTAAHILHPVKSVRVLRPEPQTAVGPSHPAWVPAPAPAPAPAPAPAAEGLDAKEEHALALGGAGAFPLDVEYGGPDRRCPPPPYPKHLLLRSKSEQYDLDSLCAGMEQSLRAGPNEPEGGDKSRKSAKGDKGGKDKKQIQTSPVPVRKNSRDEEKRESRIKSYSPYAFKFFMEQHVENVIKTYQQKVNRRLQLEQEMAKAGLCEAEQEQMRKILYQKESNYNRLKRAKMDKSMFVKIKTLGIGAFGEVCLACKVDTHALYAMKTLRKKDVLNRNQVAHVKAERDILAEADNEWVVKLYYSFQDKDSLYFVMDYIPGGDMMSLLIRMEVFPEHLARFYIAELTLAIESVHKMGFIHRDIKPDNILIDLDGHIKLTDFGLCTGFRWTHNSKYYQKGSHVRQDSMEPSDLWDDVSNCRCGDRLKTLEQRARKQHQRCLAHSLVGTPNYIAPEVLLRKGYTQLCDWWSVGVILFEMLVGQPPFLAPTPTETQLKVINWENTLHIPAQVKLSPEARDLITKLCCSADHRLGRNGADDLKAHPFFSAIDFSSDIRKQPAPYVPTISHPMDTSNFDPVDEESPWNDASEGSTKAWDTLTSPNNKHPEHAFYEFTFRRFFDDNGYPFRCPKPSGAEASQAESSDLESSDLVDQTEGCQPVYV

[18] = target: Leucine-rich repeat serine/threonine-protein kinase 2 (Homo sapiens) (UniProt Q5S007); conditions: Compound concentration 1000.0 nM
[19] = test system: Leucine-rich repeat serine/threonine-protein kinase 2 (Homo sapiens), Q5S007 [G2019S]; conditions: Compound concentration 1000.0 nM
[20] = target: Microtubule-associated serine/threonine-protein kinase 1 (Homo sapiens) (UniProt Q9Y2H9); conditions: Compound concentration 1000.0 nM
[21] = target: Dual specificity mitogen-activated protein kinase kinase 7 (Homo sapiens) (UniProt O14733); conditions: Compound concentration 1000.0 nM
[22] = target: MAP kinase-interacting serine/threonine-protein kinase 1 (Homo sapiens) (UniProt Q9BUB5); conditions: Compound concentration 1000.0 nM
[23] = target: Serine/threonine-protein kinase MRCK alpha (Homo sapiens) (UniProt Q5VT25); conditions: Compound concentration 1000.0 nM
[24] = target: Myosin-IIIb (Homo sapiens) (UniProt Q8WXR4); conditions: Compound concentration 1000.0 nM
[25] = target: Serine/threonine-protein kinase Nek2 (Homo sapiens) (UniProt P51955); conditions: Compound concentration 1000.0 nM
[26] = target: Serine/threonine-protein kinase Nek4 (Homo sapiens) (UniProt P51957); conditions: Compound concentration 1000.0 nM
Sequence of Serine/threonine-protein kinase Nek4 (Homo sapiens) (P51957 whole entry, looked up): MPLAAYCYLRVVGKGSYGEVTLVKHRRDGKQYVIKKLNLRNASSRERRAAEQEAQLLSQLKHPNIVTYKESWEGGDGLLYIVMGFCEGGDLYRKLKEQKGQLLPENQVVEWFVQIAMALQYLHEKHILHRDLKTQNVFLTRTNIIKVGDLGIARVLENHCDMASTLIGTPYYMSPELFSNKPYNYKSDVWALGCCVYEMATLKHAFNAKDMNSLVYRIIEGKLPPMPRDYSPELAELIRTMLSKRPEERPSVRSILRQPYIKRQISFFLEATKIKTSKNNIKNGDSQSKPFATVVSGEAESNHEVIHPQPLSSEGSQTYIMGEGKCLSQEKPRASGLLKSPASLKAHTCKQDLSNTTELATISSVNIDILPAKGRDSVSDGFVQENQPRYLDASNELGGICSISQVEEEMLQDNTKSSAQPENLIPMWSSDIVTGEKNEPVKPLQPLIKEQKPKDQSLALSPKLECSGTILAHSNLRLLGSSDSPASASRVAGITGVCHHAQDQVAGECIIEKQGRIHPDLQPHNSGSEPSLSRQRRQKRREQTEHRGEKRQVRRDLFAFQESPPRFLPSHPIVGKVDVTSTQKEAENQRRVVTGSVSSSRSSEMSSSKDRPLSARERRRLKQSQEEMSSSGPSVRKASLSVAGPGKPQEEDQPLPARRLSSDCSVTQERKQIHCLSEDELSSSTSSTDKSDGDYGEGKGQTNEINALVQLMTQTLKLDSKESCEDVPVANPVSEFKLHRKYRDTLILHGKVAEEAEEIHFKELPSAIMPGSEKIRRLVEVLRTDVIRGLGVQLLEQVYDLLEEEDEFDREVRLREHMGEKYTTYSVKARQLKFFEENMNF

[27] = target: Mitogen-activated protein kinase 14 (Homo sapiens) (UniProt Q16539); conditions: Compound concentration 1000.0 nM
[28] = target: Cyclin-dependent kinase 2 homolog (Plasmodium falciparum (isolate 3D7)) (UniProt P61075); conditions: Compound concentration 1000.0 nM
[29] = target: Cyclin-dependent kinase 14 (Homo sapiens) (UniProt O94921); conditions: Compound concentration 1000.0 nM
[30] = target: Phosphorylase b kinase gamma catalytic chain, skeletal muscle/heart isoform (Homo sapiens) (UniProt Q16816); conditions: Compound concentration 1000.0 nM
[31] = target: Phosphatidylinositol 3-kinase C2 domain-containing subunit gamma (Homo sapiens) (UniProt O75747); conditions: Compound concentration 1000.0 nM
[32] = test system: Phosphatidylinositol 4,5-bisphosphate 3-kinase catalytic subunit alpha isoform (Homo sapiens), P42336 [H1047L]; conditions: Compound concentration 1000.0 nM
[33] = target: 1-phosphatidylinositol 3-phosphate 5-kinase (Homo sapiens) (UniProt Q9Y2I7); conditions: Compound concentration 1000.0 nM
[34] = target: Serine/threonine-protein kinase pim-3 (Homo sapiens) (UniProt Q86V86); conditions: Compound concentration 1000.0 nM
[35] = target: Serine/threonine-protein kinase SIK3 (Homo sapiens) (UniProt Q9Y2K2); conditions: Compound concentration 1000.0 nM
[36] = target: Rho-associated protein kinase 1 (Homo sapiens) (UniProt Q13464); conditions: Compound concentration 1000.0 nM
[37] = target: Rho-associated protein kinase 2 (Homo sapiens) (UniProt O75116); conditions: Compound concentration 1000.0 nM
[38] = target: Ribosomal protein S6 kinase alpha-3 (Homo sapiens) (UniProt P51812); conditions: Compound concentration 1000.0 nM
Sequence of Ribosomal protein S6 kinase alpha-3 (Homo sapiens) (P51812 whole entry): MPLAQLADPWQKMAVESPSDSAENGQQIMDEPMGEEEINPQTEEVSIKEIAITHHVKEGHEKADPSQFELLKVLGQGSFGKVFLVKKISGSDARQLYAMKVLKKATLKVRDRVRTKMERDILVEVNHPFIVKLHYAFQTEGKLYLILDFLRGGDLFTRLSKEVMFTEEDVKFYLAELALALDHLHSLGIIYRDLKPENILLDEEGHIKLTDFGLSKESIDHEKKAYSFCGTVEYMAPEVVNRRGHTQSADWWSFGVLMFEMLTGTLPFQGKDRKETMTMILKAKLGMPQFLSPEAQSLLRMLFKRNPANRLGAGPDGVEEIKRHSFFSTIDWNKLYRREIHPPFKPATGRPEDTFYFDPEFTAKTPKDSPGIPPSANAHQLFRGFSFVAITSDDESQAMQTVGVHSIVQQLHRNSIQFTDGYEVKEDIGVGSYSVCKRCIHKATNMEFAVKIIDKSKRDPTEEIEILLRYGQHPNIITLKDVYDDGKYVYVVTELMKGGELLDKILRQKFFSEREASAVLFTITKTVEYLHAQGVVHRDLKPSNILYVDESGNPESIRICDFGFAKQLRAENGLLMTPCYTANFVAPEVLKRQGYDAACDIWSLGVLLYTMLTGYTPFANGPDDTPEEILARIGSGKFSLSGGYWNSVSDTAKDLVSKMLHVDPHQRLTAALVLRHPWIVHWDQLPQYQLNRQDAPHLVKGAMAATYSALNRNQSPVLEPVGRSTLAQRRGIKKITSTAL

[39] = target: STE20-like serine/threonine-protein kinase (Homo sapiens) (UniProt Q9H2G2); conditions: Compound concentration 1000.0 nM
[40] = target: Tyrosine-protein kinase TXK (Homo sapiens) (UniProt P42681); conditions: Compound concentration 1000.0 nM
[41] = target: Serine/threonine-protein kinase ULK3 (Homo sapiens) (UniProt Q6PHR2); conditions: Compound concentration 1000.0 nM
[42] = target: 5-hydroxytryptamine receptor 1B (Homo sapiens) (UniProt P28222); conditions: Compound concentration 10.0 uM
[43] = target: 5-hydroxytryptamine receptor 7 (Homo sapiens) (UniProt P34969); conditions: Compound concentration 10.0 uM
[44] = target: Muscarinic acetylcholine receptor M4 (Homo sapiens) (UniProt P08173); conditions: Compound concentration 10.0 uM

Q: `CC(=O)N1CCC(c2ccc(C(=O)NC3=NCCN3)cc2C(F)(F)F)CC1` [BI 0054] was tested. Which residual activity [1] did it give?
A: The residual activity was 87%.

Q: What about the residual activity [2] of the same molecule?
A: The residual activity was 100%.

Q: What about the residual activity [3] of the same molecule?
A: Its residual activity is 100%.

Q: What about the residual activity [4] of the same molecule?
A: Its residual activity is 100%.

Q: And the residual activity [5]?
A: Its residual activity is 88%.

Q: What about the residual activity [6] of the same molecule?
A: Its residual activity is 92%.

Q: And the residual activity [7]?
A: The residual activity was 100%.

Q: What about the residual activity [8] of the same molecule?
A: Its residual activity is 100%.

Q: And the residual activity [9]?
A: The residual activity was 100%.

Q: What about the residual activity [10] of the same molecule?
A: Its residual activity is 100%.

Q: What about the residual activity [11] of the same molecule?
A: The residual activity was 93%.

Q: What about the residual activity [12] of the same molecule?
A: The residual activity was 100%.

Q: And the residual activity [13]?
A: Its residual activity is 100%.

Q: What about the residual activity [14] of the same molecule?
A: Its residual activity is 100%.

Q: What about the residual activity [15] of the same molecule?
A: The residual activity was 78%.

Q: What about the residual activity [16] of the same molecule?
A: The residual activity was 100%.

Q: And the residual activity [17]?
A: The residual activity was 91%.

Q: What about the residual activity [18] of the same molecule?
A: The residual activity was 100%.

Q: And the residual activity [19]?
A: Its residual activity is 100%.

Q: What about the residual activity [20] of the same molecule?
A: The residual activity was 87%.

Q: And the residual activity [21]?
A: The residual activity was 100%.

Q: What about the residual activity [22] of the same molecule?
A: The residual activity was 100%.

Q: And the residual activity [23]?
A: The residual activity was 100%.

Q: And the residual activity [24]?
A: The residual activity was 100%.

Q: And the residual activity [25]?
A: The residual activity was 100%.

Q: What about the residual activity [26] of the same molecule?
A: Its residual activity is 100%.

Q: And the residual activity [27]?
A: The residual activity was 100%.

Q: And the residual activity [28]?
A: Its residual activity is 100%.

Q: What about the residual activity [29] of the same molecule?
A: The residual activity was 100%.

Q: And the residual activity [30]?
A: The residual activity was 100%.

Q: What about the residual activity [31] of the same molecule?
A: Its residual activity is 85%.

Q: And the residual activity [32]?
A: The residual activity was 100%.

Q: And the residual activity [33]?
A: Its residual activity is 88%.

Q: What about the residual activity [34] of the same molecule?
A: Its residual activity is 100%.

Q: And the residual activity [35]?
A: Its residual activity is 100%.

Q: What about the residual activity [36] of the same molecule?
A: Its residual activity is 0.5%.

Q: And the residual activity [37]?
A: Its residual activity is 73%.

Q: What about the residual activity [38] of the same molecule?
A: The residual activity was 100%.

Q: What about the residual activity [39] of the same molecule?
A: Its residual activity is 94%.

Q: And the residual activity [40]?
A: Its residual activity is 82%.

Q: And the residual activity [41]?
A: Its residual activity is 89%.

Q: What about the inhibition [42] of the same molecule?
A: Its inhibition is 37.8%.

Q: What about the inhibition [43] of the same molecule?
A: The inhibition was 3.32%.

Q: What about the inhibition [44] of the same molecule?
A: The inhibition was 19.9%.

Q: `CC(=O)N1CCC(c2ccc(C(=O)NC(=N)N)cc2C(F)(F)F)CC1` [BI 9627] was tested. Which residual activity [1] did it give?
A: Its residual activity is 95%.

Q: What about the residual activity [2] of the same molecule?
A: Its residual activity is 100%.

Q: What about the residual activity [3] of the same molecule?
A: Its residual activity is 87%.

Q: What about the residual activity [4] of the same molecule?
A: Its residual activity is 100%.

Q: And the residual activity [5]?
A: The residual activity was 100%.

Q: What about the residual activity [6] of the same molecule?
A: The residual activity was 93%.

Q: And the residual activity [7]?
A: Its residual activity is 100%.

Q: What about the residual activity [8] of the same molecule?
A: The residual activity was 95%.

Q: And the residual activity [9]?
A: Its residual activity is 90%.

Q: And the residual activity [10]?
A: Its residual activity is 100%.

Q: And the residual activity [11]?
A: Its residual activity is 96%.

Q: And the residual activity [12]?
A: The residual activity was 91%.

Q: And the residual activity [13]?
A: The residual activity was 100%.

Q: What about the residual activity [14] of the same molecule?
A: The residual activity was 100%.

Q: And the residual activity [15]?
A: Its residual activity is 100%.

Q: What about the residual activity [16] of the same molecule?
A: The residual activity was 99%.

Q: What about the residual activity [17] of the same molecule?
A: Its residual activity is 100%.

Q: And the residual activity [18]?
A: Its residual activity is 100%.

Q: What about the residual activity [19] of the same molecule?
A: The residual activity was 100%.

Q: What about the residual activity [20] of the same molecule?
A: Its residual activity is 49%.

Q: What about the residual activity [21] of the same molecule?
A: Its residual activity is 86%.

Q: And the residual activity [22]?
A: Its residual activity is 100%.

Q: What about the residual activity [23] of the same molecule?
A: Its residual activity is 100%.

Q: What about the residual activity [24] of the same molecule?
A: Its residual activity is 100%.

Q: And the residual activity [25]?
A: Its residual activity is 100%.

Q: And the residual activity [26]?
A: Its residual activity is 100%.

Q: What about the residual activity [27] of the same molecule?
A: Its residual activity is 100%.

Q: What about the residual activity [28] of the same molecule?
A: The residual activity was 100%.

Q: And the residual activity [29]?
A: Its residual activity is 100%.

Q: And the residual activity [30]?
A: Its residual activity is 100%.

Q: And the residual activity [31]?
A: The residual activity was 100%.

Q: What about the residual activity [32] of the same molecule?
A: Its residual activity is 100%.

Q: And the residual activity [33]?
A: The residual activity was 84%.

Q: And the residual activity [34]?
A: The residual activity was 100%.

Q: And the residual activity [35]?
A: The residual activity was 100%.

Q: And the residual activity [36]?
A: Its residual activity is 87%.

Q: What about the residual activity [37] of the same molecule?
A: The residual activity was 100%.

Q: What about the residual activity [38] of the same molecule?
A: The residual activity was 95%.

Q: And the residual activity [39]?
A: The residual activity was 100%.

Q: What about the residual activity [40] of the same molecule?
A: Its residual activity is 100%.

Q: And the residual activity [41]?
A: The residual activity was 80%.

Q: And the inhibition [42]?
A: The inhibition was 14.6%.

Q: And the inhibition [43]?
A: Its inhibition is 16.3%.

Q: And the inhibition [44]?
A: Its inhibition is 22.3%.
